Starred links: 1 amine or outer side, 2 acyl side, 3 side chain; linkers in the order of their positions; H or OH if unused. Non-standard residues stand in square brackets, D forms with d. Residues, ends and D or L forms follow the SMILES beside them. X1 = O=C(c1cc(O)ccc1N[*:1])[*:2] A value given as a limit tells only on which side of the number the result lay.

The values that follow come from publication PMC5081312, “Antifouling phenyl ethers and other compounds from the invertebrates and their symbiotic fungi collected from the South China Sea” (AMB Express, 2016).

This data set has as its system cyprids of barnacle B. amphitrite. Description: Anti-larval settlement bioassay (antifouling activity and larval toxicity). The format is in vivo. The settings on record: for LC50/EC50 ratio (therapeutic ratio): B. amphitrite cyprids, ratio >15 considered non-toxic; for LC50 / EC50: cyprids of B. amphitrite, 48 h at 28 °C; for LC50: concentration where 50% of larvae were dead; for EC50: concentration where 50% of larvae were inhibited to settle vs negative control, read-out: EC50 (larval settlement inhibition); for inhibition of larval settlement in preliminary screening: B. amphitrite, at 25.0 μg ml^−1. How it is done:
The newly released nauplii were screened with the aperture of 90 μm. The newly released nauplii were raised in filtered seawater (FSW) at 28 °C with mild aeration and fed with Chaetoceros gracilis Schutt at 1 × 10^6 cells ml^−1. The nauplius larvae transformed into cyprids (ready to attach and metamorphose) after 3.5 days. Newly transformed cyprids were kept in filtered seawater at 4 °C overnight before being used in the anti-larval settlement bioassay.
The antifouling activity was evaluated as larval settlement inhibition against the cyprids of barnacle B. amphitrite using 24-well polystyrene plates (Nunc, Naperville, CA, USA). Each compound was dissolved in a stock solution of DMSO with the concentration of 50 mg ml^−1, and then diluted 1000 times with FSW to 50 μg ml^−1. The compound was further transferred into FSW to make up the following test solution with the concentrations ranging from 25 to 0.50 μg ml^−1. One millilitre of the test solution and 16–20 larvae were allocated to each well of the 24-well plate. Each concentration had three replicate wells. The plates were cultivated in darkness for 48 h at 28 °C. The effects of the test compounds against the larvae settlement were determined by examining the plates under a dissecting microscope to check for (1) settled larvae (attached and metamorphosed), (2) swimming larvae, as well as (3) any possible toxic effects of the treatments (dead and paralyzed). The number of the settled larvae was expressed as a percentage of the total number of larvae per well. Each compound was tested by triplicate experiments using three different batches of larvae.
The EC50 and LC50 values of each compound were calculated according to the records of anti-larval settlement experiments. […] Then a concentration–response curve was plotted and a tread line was set up.

The term LC50 denotes the concentration lethal to half of the exposed cells or organisms. A lower LC50 goes with greater toxicity. Broadly, the EC50 is the concentration that produces a half-maximal response. As for `C[C@]12CCC[C@H](O1)c1c(cc3c(c1O)C(=O)c1c(O)cc(O)cc1C3=O)O2` [compound 32, Averufin], the “LC50/EC50 ratio (therapeutic ratio)” value is listed as over 14.7, the LC50 was over 136 µM and the EC50 is 9.27 µM.

Turning to `CC(=O)OCCC1(C)C(C2=CC(OC(C)=O)C3CC(OC(C)=O)CCC3(C)C2=O)CCC1C(C)C=CCC(C)C` (stereo not drawn) [compound 31, (22E)-3,6,11-Triacetoxy-9,11-seco-5α-cholesta-7,22-dien-9-one], the “LC50/EC50 ratio (therapeutic ratio)” value was found to be 8.00, the LC50 turned out to be 96.8 µM and the EC50 amounted to 12.1 µM.

`CC(C)C=CC(C)C1CCC(C2=CC(O)C3CC(O)CCC3(C)C2=O)C1(C)CCO` (stereo not drawn) [compound 25, (22E)-3β,6α,11-Trihydroxy-24-nor-9,11-seco-5α-cholesta-7,22-dien-9-one]: the “inhibition of larval settlement in preliminary screening” value (“inhibition of larval settlement” below) is “completely inhibited”, the LC50 was determined as 59.8 µM and the EC50 stood at 29.9 µM.

Take `COc1cc(O)cc2c1C(=O)c1c(O)cc(CO)c(O)c1C2=O` [compound 36, ω-Hydroxyrubrocristin]: the LC50 was over 158 µM and the 50% effective concentration (EC50) was over 79.1 µM.

With `COc1cc(O)cc2c1C(=O)c1c(O)cc(CO)cc1C2=O` [compound 35, Questinol], the LC50 was over 167 µM and the EC50 is over 83.3 µM.

For the compound “1-Formyl-4-methyl-7-isopropylazulene [compound 17]”, the “LC50/EC50 ratio (therapeutic ratio)” value is recorded as over 16.1, the 50% lethal concentration (LC50) was over 236 µM and the EC50 was found to be 14.7 µM.

Regarding `COc1cc(C)c(C(=O)O[C@H]2[C@@H](OC(C)=O)[C@H](n3ccc(=O)[nH]c3=O)O[C@@H]2COC(C)=O)c(OC)c1` [compound 52, Diacetylkipukasin D], the LC50 is over 98.8 µM and the EC50 was over 49.4 µM.

Consider `CC1=CC(=O)c2c1cc(C(C)C)c(C=O)c2C` [compound 19, 3,8-Dimethyl-5-isopropyl-6-formylindenone], for which the LC50 was over 219 µM and the half-maximal effective concentration (EC50) is over 110 µM.

Turning to `C[C@]12CC[C@H](O)[C@H](O1)c1c(cc3c(c1O)C(=O)c1c(O)cc(O)cc1C3=O)O2` [compound 34, Nidurufin], the 50% lethal concentration (LC50) is over 130 µM and the EC50 is over 65.1 µM.

`CC(C)CC=CC(C)C1CCC(C2=CC(O)C3CC(O)CCC3(C)C2=O)C1(C)CCO` (stereo not drawn) [compound 29, (22E)-3β,6α,11-Trihydroxy-9,11-seco-5α-cholesta-7,22-dien-9-one]: the LC50 came out at 57.9 µM and the EC50 is 14.7 µM.

For the compound `C=CC(C)(C)c1[nH]c2ccccc2c1/C=C1\NC(=O)C2(C=C3c4cc(O)cc(O)c4C(=O)c4c(O)cc(C)c(c43)O2)NC1=O` (centres unmarked) [compound 42, Variecolortide B], the LC50 is over 84.9 µM and the EC50 was over 84.9 µM.

Consider `COc1cc(C)c(C(=O)O[C@@H]2[C@H](O)[C@@H](CO)O[C@H]2n2ccc(=O)[nH]c2=O)c(OC)c1` [compound 49, Kipukasin E], for which the LC50 was over 59.2 µM and the EC50 is over 59.2 µM.

As to `CC(C)CCC(C)C1CCC(C2=CC(O)C3CC(O)CCC3(C)C2=O)C1(C)CCO` (stereo not drawn) [compound 23, 3β,6α,11-Trihydroxy-24-nor-9,11-seco-5α-cholest-7-en-9-one], the “inhibition of larval settlement” value was “completely inhibited”, the LC50 was 59.5 µM and the EC50 was determined as 10.7 µM.

In the case of `CC[C@H](O)c1cc(O)c2c(c1)C(=O)c1cc(O)cc(O)c1C2=O` [compound 39, Rhodoptilometrin], the “LC50/EC50 ratio (therapeutic ratio)” value came to 13.4, the 50% lethal concentration (LC50) is 159 µM and the EC50 was determined as 11.9 µM.

Consider `COc1cc(C)c(C(=O)O[C@H]2[C@@H](O)[C@H](n3ccc(=O)[nH]c3=O)O[C@@H]2CO)c(OC)c1` [compound 50, Kipukasin D], for which the LC50 was over 59.2 µM and the EC50 is over 59.2 µM.

In the case of `COc1cc(O)c(-c2c3c(c(O)c4c(OC)cc(O)cc24)C(=O)C=C(C)C3=O)c2cc3c(c(O)c12)C(=O)C[C@@](C)(O)C3` [compound 37, Asperinine A], the “LC50/EC50 ratio (therapeutic ratio)” value is listed as over 2.88, the LC50 was over 87.7 µM and the 50% effective concentration (EC50) is 30.5 µM.

Regarding `COc1cc(O)cc2c1C(=O)c1c(cc3c(c1O)[C@H]1O[C@](C)(CC[C@@H]1O)O3)C2=O` [compound 33, 8-O-methylnidurufin], the “LC50/EC50 ratio (therapeutic ratio)” value is listed as over 8.75, the LC50 was over 126 µM and the EC50 worked out at 14.4 µM.

As for `COC(=O)c1ccccc1NC(=O)[C@H](CC[S+](C)[O-])NC(=O)c1cnc2c(n1)c(=O)n(C)c(=O)n2C` (some centres unmarked) [compound 53, Penilumamide], the LC50 is over 96.9 µM and the EC50 was over 96.9 µM.

In the case of `C[C@@H]1NC(=O)[C@H](Cc2ccc(O)cc2)NC(=O)c2cc(O)ccc2NC(=O)[C@@H]2CCCN2C(=O)[C@H](C)NC1=O` [compound 55, Asperpeptide A] (cyclo(AAP[X1]Y)), the LC50 is over 46.6 µM and the EC50 is over 46.6 µM.

Take Variecolortide C [compound 40]: the LC50 is over 82.9 µM and the half-maximal effective concentration (EC50) is over 82.9 µM.

Consider `C[C@H](NC(=O)c1cnc2c(n1)c(=O)n(C)c(=O)n2C)C(=O)Nc1ccccc1C(N)=O` [compound 54, Penilumamide D], for which the LC50 is over 58.8 µM and the EC50 was over 58.8 µM.

With `COc1cc(O)c(-c2c3c(c(O)c4c(OC)cc(O)cc24)C(=O)C=C(C)C3=O)c2cc3c(c(O)c12)C(=O)C[C@@](C)(O)C3` [compound 38, Asperinine B], the “LC50/EC50 ratio (therapeutic ratio)” value was over 2.22, the LC50 was over 87.7 µM and the EC50 was 39.5 µM.

As to `CC(C)CCCC(C)C1CCC(C2=CC(O)C3CC(O)CCC3(C)C2=O)C1(C)CCO` (stereo not drawn) [compound 26, 3β,6α,11-Trihydroxy-9,11-seco-5α-cholest-7-en-9-one], the “inhibition of larval settlement” value is “completely inhibited”, the LC50 turned out to be 57.6 µM and the EC50 worked out at 28.6 µM.

As to `CC(C)C(C)CCC(C)C1CCC(C2=CC(O)C3CC(O)CCC3(C)C2=O)C1(C)CCO` (mixture of isomers) [compound 24, (24R)-and(24S)-3β,6α,11-Trihydroxy-methyl-9,11-seco-5α-cholest-7-en-9-one], the LC50 is over 112 µM and the EC50 is over 55.8 µM.

Regarding `COc1cc(O)cc(C)c1C(=O)O[C@@H]1[C@H](O)[C@@H](CO)O[C@H]1n1ccc(=O)[nH]c1=O` [compound 48, Kipukasin H], the LC50 was over 123 µM and the EC50 was over 61.3 µM.

Consider `C=CC(C)(C)c1[nH]c2ccc(CC=C(C)C)cc2c1C=C1NC(=O)C2(C=C3c4cc(O)cc(OC)c4C(=O)c4c(O)cc(C)c(c43)O2)NC1=O` (centres unmarked) [compound 41, 7-O-methylvariecolortide A], for which the LC50 is over 74.5 µM and the concentration giving a half-maximal response (EC50) was over 74.5 µM.

On to `CC(C)C(C)C=CC(C)C1CCC(C2=CC(O)C3CC(O)CCC3(C)C2=O)C1(C)CCO` [compound 28, (22E,24R)-3β,6α,11-trihydroxy-24-Methyl-9,11-seco-5α-cholesta-7,22-dien-9-one], for which the “LC50/EC50 ratio (therapeutic ratio)” value is recorded as over 1.25, the LC50 was over 56.1 µM and the EC50 worked out at 44.8 µM.

`CC(=O)OCCC1(C)C(C2=CC(OC(C)=O)C3CC(O)CCC3(C)C2=O)CCC1C(C)C=CCC(C)C` (stereo not drawn) [compound 30, (22E)-6,11-Diacetoxy-3-hydroxy-9,11-seco-5α-cholesta-7,22-dien-9-one]: the “LC50/EC50 ratio (therapeutic ratio)” value was found to be 16.1, the median lethal concentration (LC50) came to 96.8 µM and the EC50 was 6.01 µM.
